Laboratory results from article PMC7156456, “Modulation of virus-induced NF-κB signaling by NEMO coiled coil mimics” (Nature Communications, 2020).

Tests used:
vFLIP/NEMO interaction = molecular target: T1, vFLIP/NEMO interaction (Human herpesvirus 8 type P, UniProt F5HEZ4); test: biochemical; format: binding, Kaposi's sarcoma herpesvirus (KSHV)
T1 construct: vFLIP (1-178) and NEMO (150-272) were cloned into pET28a vector; made in house; host or cells: E. coli BL21(DE3)
Experimental: For the competition assay, two-fold serial dilution of the different NEMO mimetics were prepared in DMSO then diluted in TR-FRET buffer to 5× and added in triplicates to a 384 low volume well plate. His-MBP vFLIP diluted to 5× in TR-FRET buffer (250 nM) was then added to each well and incubated for 15 min at RT. His-Biotinylated NEMO diluted to 5× in TR-FRET buffer (250 nM) was the added to the mixture followed by addition of 5× or 200 nM) streptavidin-XL665 and (5× or 1 nM) of the antibody-tagged fluorophore anti-MBPK labeled with Europium cryptate). The final concentration of the NEMO mimetics ranged from 0.195 μM to 100 μM. Total assay volume was 20 μL. The plate was incubated for 1 h at RT then read using BioTek Synergy NEO. Titration of non-biotinylated NEMO (0.0195-10 μM) was used as a positive control in every run. The effect of the peptides on vFLIP/NEMO interaction was normalized to the control and expressed as percent inhibition (% of control):
%ofcontrol=FRETCHD−FRETbackground/FRETcontrol−FRETbackground where FRET control is the TR-FRET signal in DMSO treated wells (highest signal) and FRET background is TR-FRET signal in wells containing the highest concentration of non-biotinylated NEMO (10 μM) which provides the lowest signal. Normalized TR-FRET data was plotted using Graphpad Prism.
Supplementary Figure 1. Schematic representation of the Time-resolved Fluorescence Energy Transfer (TR-FRET) binding assay. (a) Complexes of recombinant his-MBP vFLIP, biotinylated His-NEMO, Europium cryptate conjugated anti-MBP antibody and strepavidin XL665 were used to generate proximity for a FRET signal between the donor fluorophore Europium cryptate and the acceptor fluorophore strepavidin XL665. The TR-FRET signal was calculated as a ratiometric measurement of the acceptor fluoroscence emission at 665nm over the donor emission at 620nm multiplied by 10000. […] (d) Size exclusion chromatography of NEMO-vFLIP complex indicating a shift to the left in absorbance at 280nm when NEMO binds specifically to vFLIP. […]

Serum stability assay = format: in vitro ADME; conditions: 25% fetal bovine serum in RPMI, HPLC, read-out: initial peptide remained intact
Experimental: Time points of 30 min, 1 h, 2 h, 8 h, and 24 h were analyzed in triplicate. Each reaction was started upon addition of FBS to 60 μM peptide. Reactions were quenched at time points with addition of 100% EtOH, chilled on ice for 10 min, and pelleted at 11,752 × g. Supernatant was injected onto an Agilent analytical HPLC equipped with an XTerra RP18 3.5 µm 2.1 × 150 mm column (Part No. 186000410) and visualized at 220 nm. Integration of peak areas was used to determine percent degradation of peptides. Mass of cleaved products were determined using Matrix assisted laser desorption ion time of flight (MALDI-TOF) spectroscopy.

[1] = Thermal denaturation by circular dichroism; format: physicochemical; conditions: 5–95 °C
Experimental: […] The spectra were averaged over 4 scans with the background subtracted to the analogous experimental conditions. Each sample was prepared in a 50 mM potassium fluoride solution in water (pH 7.4) to a final concentration of 20 μM. The concentrations of each peptide were determined by the UV absorption at 280 nm.

BC-3-luc PEL xenograft = test: PEL in vivo xenograft mouse model; design: species or system NOD-SCID mice; conditions: 20 mg/kg, 9 consecutive days
Experimental: We injected BC-3-luc PEL cells into the peritoneal cavity of NOD-SCID mice and monitored tumor burden by bioluminescence imaging. […] Although the overall performance of our peptide is highly encouraging, further optimization of delivery and dosing will be essential to achieve more robust responses in vivo.
[…] BC3NFRen-luc#3 were injected intraperitoneally into 4-6 week-old male NOD/SCID mice (Jackson Laboratory, stock 001303). […] We monitored tumor burden or bioluminescence (photons/s/cm^2/steradian) by live imaging and weighing, with the sacrificial endpoint determined to be a net gain or loss of 10% body weight over a week.

T1 sequence (F5HEZ4 1-178): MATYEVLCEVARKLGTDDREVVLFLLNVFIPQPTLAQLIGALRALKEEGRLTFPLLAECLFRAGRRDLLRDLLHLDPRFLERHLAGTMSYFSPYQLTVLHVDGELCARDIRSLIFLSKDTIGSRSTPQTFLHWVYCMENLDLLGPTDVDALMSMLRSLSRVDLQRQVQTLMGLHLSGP

CC[C@H](C)[C@H](NC(=O)[C@H](CC(C)C)NC(=O)[C@H](CCC(=O)O)NC(=O)[C@H](CC(=O)O)NC(=O)[C@@H](NC(=O)[C@H](CCCCn1cc(COCc2cn(CCCC[C@H](NC(=O)[C@H](CC(C)C)NC(=O)[C@H](CCCNC(=N)N)NC(=O)[C@H](CCCNC(=N)N)NC(=O)[C@@H](NC(=O)[C@H](CCC(=O)NC3CCCCC3)NC(=O)[C@H](CCC(=O)O)NC(=O)[C@H](Cc3c[nH]c4ccccc34)NC(=O)[C@H](CC(C)C)NC(=O)[C@H](CCC(N)=O)NC(=O)[C@H](CCCNC(=N)N)NC(=O)[C@@H](NC(=O)[C@H](Cc3c[nH]c4ccccc34)NC(=O)[C@H](CCC(=O)O)NC(C)=O)[C@@H](C)CC)[C@@H](C)CC)C(N)=O)nn2)nn1)NC(=O)[C@H](CCCNC(=N)N)NC(=O)[C@H](Cc1ccccc1)NC(=O)[C@H](CC(C)C)NC(=O)[C@H](CCCNC(=N)N)NC(=O)[C@H](Cc1c[nH]cn1)NC(=O)[C@@H](NC(=O)[C@H](CCC(=O)O)NC(C)=O)[C@@H](C)CC)[C@@H](C)CC)C(=O)N[C@@H](CCCNC(=N)N)C(N)=O [CHD3^NEMO]
Ki (vFLIP/NEMO interaction): 6.9 ± 1.4 µM | remaining at 24 h, 60 μM (Serum stability assay): ~80% | conformational stability (helix percentage) [1]: retain a significant proportion of helix percentage at high temperatures | toxicity (BC-3-luc PEL xenograft): without any observed toxicity
